Data on 3 molecules can be found in US20190255199A1, “NON-INVASIVE DIAGNOSTIC IMAGING AGENT FOR HEART DISEASE” (Nihon Medi-Physics Co., Ltd., priority 2016, published 2019).

For experiment [1], the system named is heart tissue section of an ischemic heart disease model rat. The experiment in a line: In vitro autoradiography using ischemic heart disease model rat (Example 3). Format: binding. The conditions noted are these: for accumulation in the presence of an excessive amount of non-labeled compound (binding specificity): 5 μmol/L non-labeled compound (Compound 1 or Compound 2) added, FIG. 4(e)-(h) / FIG. 5(c),(d); for ratio of ischemia reperfusion site signal intensity/non-ischemic site signal intensity: ROI on autoradiograms, n=4, FIG. 7; for accumulation in lesion region on in vitro autoradiogram: sections immersed in labeled compound solution 30 minutes at room temperature, FIG. 4 / FIG. 5. The method, then: (§1) The chest of each Wistar rat (male) was opened under isoflurane anesthesia, and the left coronary artery was ligated for 30 minutes, followed by reperfusion. The chest was closed to prepare an ischemic heart disease model rat. Approximately 1 week after the operation, the rat was sacrificed under anesthesia, and the heart was taken out thereof. Sections of 5 μm in thickness were prepared from the base side of the heart. Immunostaining was carried out using the prepared sections to confirm the expression and distribution of CPY11B2. As an anti-CYP11B2 antibody, one prepared according to the method described in Ogishima T et al., Endocrinology, 1992, vol. 130, pp. 2971-7 was used. As a secondary antibody, HRP Labelled Polymer Anti-Rabbit (manufactured by Dako/Agilent Technologies, Inc.) was used. CYP11B2 expression sites were detected by applying DAB+(3,3′-diaminobenzidine tetrahydrochloride) substrate kit (manufactured by Dako/Agilent Technologies, Inc.) to the HRP bound to the secondary antibody.
Each ischemic heart disease model rat was prepared in the same way as in Example 1. The rat was sacrificed under isoflurane anesthesia between 1 and 3 weeks after the operation. Then, the heart was harvested, and 5 μm sections were prepared and preserved at −80° C. until they were used. The sections were brought back to room temperature from −80° C., dried for 30 minutes or longer, then immersed in phosphate-buffered saline for 30 minutes, and subsequently immersed in phosphate-buffered saline containing 1 w/v % bovine serum albumin for 30 minutes for hydrophilization. Each phosphate-buffered saline containing 1 w/v % bovine serum albumin and further containing Compound [^18F] 1 (radioactivity concentration: approximately 40 kBq/mL) or Compound [^123I] 2 (radioactivity concentration: approximately 10 kBq/mL) was prepared, and the hydrophilized sections were immersed therein at room temperature for 30 minutes. Then, the sections were washed by immersing for 5 minutes each in phosphate-buffered saline containing 1 w/v % bovine serum albumin, phosphate-buffered saline, and phosphate-buffered saline. The sections thus washed were thoroughly dried and then exposed to light for approximately 3 hours as to Compound [^18F] 1 and for approximately 16 hours as to Compound [^123I] 2 on an imaging plate (BAS-SR2040, manufactured by Fujifilm Corp.). Autoradiograms were obtained using a fluoro image analyzer (FLA-7000, manufactured by GE Healthcare Corp.).
Also, autoradiograms were obtained by immersing the sections in a solution containing Compound [^18F] 1 together with 5 μmol/L of Compound 1, or a solution containing Compound [^123I] 2 together with 5 μmol/L of Compound 2 in the same way as above.
The same experiment as above was conducted using the heart harvested from a normal rat.
ROI was established at an ischemia reperfusion site and a non-ischemic site as to the autoradiography of Compound [^18F] 1 and Compound [^123I] 2, and the ratio of signal intensity was compared between these sites. FIG. 7(a) is one example of an autoradiogram of the section immersed in Compound [^18F] 1. FIG. 7(c) is one example of an autoradiogram of the section immersed in Compound [^123I] 2. In both FIGS. 7(a) and 7(c), ROI of the ischemia reperfusion site is surrounded with the solid line, and ROI of the non-ischemic site is surrounded with the broken line. […] 1 in each rat. […] 2 in each rat. […] 1 and Compound [^123I] 2 at the ischemia reperfusion site compared with the non-ischemic site was observed. Higher accumulation of Compound [^123I] 2 than that of Compound [^18F] 1 was also observed.

In experiment [2] the test system is ischemic heart disease model rat. The experiment is described as follows: Ex vivo autoradiography using ischemic heart disease model rat (Example 2). It counts as in vivo. As for the experimental part:
as §1
Each ischemic heart disease model rat was prepared in the same way as in Example 1. Compound [^18F] 1 was administered thereto (approximately 50 MBq/rat) between 1 and 3 weeks after the operation. 20 minutes after the administration, the rat was sacrificed under anesthesia, and the heart was taken out thereof. […]

The test system of the next experiment is normal rat. The experiment is described as follows: SPECT imaging experiment using normal rat (Example 5). It counts as in vivo. The following applies: approximately 100 MBq/rat, imaging started 150 minutes after administration, FIG. 9(a)-(c). The method, then: Each ischemic heart disease model rat was prepared in the same way as in Example 1. Compound [^123I] 2 was administered thereto (approximately 100 MBq/rat) in one week after the operation. Static imaging for approximately 8 minutes was started at 150 minutes after the administration using a SPECT apparatus for animals (FX3000, manufactured by TriFoil Imaging). Data collection was carried out in an energy window of 143 to 175 keV, and the collected data was reconstituted by OSEM (Ordered Subset Expectation Maximization) to obtain images. Computed tomography imaging was carried out in order to identify the position of the heart. The same experiment as above was conducted using a normal rat.

Experiment [3] deals with heart tissue section of an ischemic heart disease model rat. The experiment in a line: Influence of elapsed time after ischemic heart disease model rat preparation on compound accumulation, in vitro autoradiography (Example 4). The following applies: normal rat and 1 day, 3 days, 1 week after the operation, FIG. 8(a). It counts as binding. As for the experimental part:
as §1
Each ischemic heart disease model rat was prepared in the same way as in Example 1. The rat was sacrificed under isoflurane anesthesia 1 day (3 rats), 3 days (4 rats) or 1 week (4 rats) after the operation. […] 2 (radioactivity concentration: approximately 10 kBq/mL) was prepared, and the hydrophilized sections were immersed therein at room temperature for 30 minutes. […]

For experiment [4], the system named is ischemic heart disease model rat. The experiment is described as follows: SPECT imaging experiment using ischemic heart disease model rat (Example 5). It counts as in vivo. The conditions noted are these: approximately 100 MBq/rat, one week after operation, static imaging started 150 minutes after administration, FIG. 9(d)-(f). The method, then:
as §1
Each ischemic heart disease model rat was prepared in the same way as in Example 1. Compound [^123I] 2 was administered thereto (approximately 100 MBq/rat) in one week after the operation. Static imaging for approximately 8 minutes was started at 150 minutes after the administration using a SPECT apparatus for animals (FX3000, manufactured by TriFoil Imaging). […]

Experiment [5] has as its system heart tissue section of an ischemic heart disease model rat. The experiment is described as follows: In vitro autoradiography using ischemic heart disease model rat (Example 10). Format: binding. The conditions noted are these: ischemic heart disease model rat one week after operation, approximately 10 kBq/mL, FIG. 14. The method, then:
as §1
Each ischemic heart disease model rat was prepared in the same way as in Example 1. The rat was sacrificed under isoflurane anesthesia in one week after the operation. […] 3 (radioactivity concentration: approximately 10 kBq/mL) was prepared, and the hydrophilized sections were immersed therein at room temperature for 30 minutes. […]

The subject of experiment [6] is heart tissue section of a myocarditis model rat. The experiment is described as follows: In vitro autoradiography using myocarditis model rat (Example 7). Format: binding.
The subject of experiment [7] is heart tissue section of a hypertensive heart disease model rat. The experiment is described as follows: In vitro autoradiography using hypertensive heart disease model rat (Example 9). It counts as binding. The method, then:
Each DIS/Eis (Dahl-Iwai S) rat (male, Japan SLC, Inc.) was fed with 8% NaCl diet (Oriental Yeast Co., Ltd.) from the age of 5 weeks, raised up to the age of 11 weeks, and then sacrificed under anesthesia, and the heart was taken out thereof. Sections of 5 μm in thickness were prepared. Immunostaining was carried out using the prepared sections to confirm the expression and distribution of CPY11B2. As an anti-CYP11B2 antibody, one prepared according to the method described in Ogishima T et al., Endocrinology, 1992, vol. 130, pp. 2971-7 was used. As a secondary antibody, HRP Labelled Polymer Anti-Rabbit (manufactured by Dako/Agilent Technologies, Inc.) was used. CYP11B2 expression sites were detected by applying DAB+(3,3′-diaminobenzidine tetrahydrochloride) substrate kit (manufactured by Dako/Agilent Technologies, Inc.) to the HRP bound to the secondary antibody. The same experiment as above was conducted using the heart harvested from a DIS/Eis rat raised with a NaCl-free diet (normal rat).
Each hypertensive heart disease model rat was prepared in the same way as in Example 8. The heart was harvested, and 5 μm-thick sections were prepared and preserved at −80° C. until they were used. […] 3 (radioactivity concentration: approximately 10 kBq/mL) was prepared, and the hydrophilized sections were immersed therein at room temperature for 30 minutes. […]

For the molecule `Fc1cc2nc(-c3cncc(Cn4ccnc4)c3)n(CC[18F])c2cc1Cl` [Compound [^18F] 1, 6-chloro-5-fluoro-1-(2-[^18F]fluoroethyl)-2-[5-(imidazol-1-ylmethyl)pyridin-3-yl]benzimidazole], in experiment [1], the “accumulation in the presence of an excessive amount of non-labeled compound (binding specificity)” value is recorded as “inhibited by the addition of an excessive amount of a non-labeled compound, suggesting that the binding is specific”; the “ratio of ischemia reperfusion site signal intensity/non-ischemic site signal intensity” value was “increased accumulation”; the “accumulation in lesion region on in vitro autoradiogram” value is “accumulation of Compound [^18F] 1 in a lesion region was confirmed”. In addition, the “staining findings at the position corresponding to the accumulation site” value in experiment [2] (HE, Masson trichrome and CYP11B2 immunostaining of adjacent section, FIG. 3) was “inflammatory reaction, fibrosis, and CYP11B2 expression were also confirmed at a position corresponding to the accumulation site”. In experiment [2] (approximately 50 MBq/rat, 1 to 3 weeks after operation, heart taken 20 minutes after administration, FIG. 2), the “accumulation in the heart on ex vivo autoradiogram” value was “local accumulation of Compound [^18F] 1 was confirmed”.

`FCCn1c(-c2cncc(Cn3ccnc3)c2)nc2ccc([123I])cc21` [Compound [^123I] 2, 1-(2-fluoroethyl)-2-[5-{(imidazol-1-yl)methyl}pyridin-3-yl]-6-[^123I]iodobenzimidazole]: the “accumulation in the heart on SPECT image” value in the experiment on normal rat is “not observed in the heart of the normal rat”. Besides, in experiment [3], the “ratio of ischemia reperfusion site signal intensity/non-ischemic site signal intensity with elapsed time” value is “increased with elapsed time after the operation”. For the same molecule, in experiment [1], the “accumulation in the presence of an excessive amount of non-labeled compound (binding specificity)” value was “inhibited by the addition of an excessive amount of a non-labeled compound, suggesting that the binding is specific”; the “ratio of ischemia reperfusion site signal intensity/non-ischemic site signal intensity” value is “increased accumulation”; the “accumulation in lesion region on in vitro autoradiogram” value was “accumulation of Compound [^123I] 2 in a lesion region was confirmed”. In experiment [1] (Masson trichrome staining of the same section, FIG. 6), the “agreement of accumulation with fibrosis region” value is listed as “in good agreement with a fibrosis region”. Moreover, the “accumulation compared between the two labeled compounds” value in experiment [1] (signal intensity ratio, FIG. 7(b) versus 7(d)) was “Higher accumulation of Compound [^123I] 2 than that of Compound [^18F] 1”. Further, the “accumulation in the heart on SPECT image” value in experiment [4] was “confirmed in the heart of the ischemic heart disease model rat”.

Consider `Cn1c(-c2cncc(Cn3ccnc3)c2)nc2ccc([123I])cc21` [Compound [^123I] 3, 2-[5-{(1H-imidazol-1-yl)methyl}pyridin-3-yl]-6-[^123I]iodo-1-methyl-1H-benz[d]imidazole], for which, in experiment [5], the “accumulation in lesion region compared with normal rat” value is listed as “increased accumulation”. Moreover, the “agreement of accumulation with fibrosis region” value in experiment [6] (Masson trichrome staining of adjacent section, FIG. 11) is on record as “in good agreement with a fibrosis region”; in experiment [7] (Masson trichrome staining of adjacent section, FIG. 13), “in good agreement with a fibrosis region”. The “accumulation in heart tissue section compared with normal rat” value in experiment [6] (approximately 10 kBq/mL, FIG. 11(a),(b)) is “increased accumulation”; in experiment [7] (approximately 10 kBq/mL, FIG. 13(a),(b)), “increased accumulation”.
